In patent publication US12391679B2, “Benzamide-substituted bicyclic imidazo- and pyrazolo-fused -pyridine, -pyrimide, and -pyridazine compounds for treatment of inflammatory diseases” (ONCO3R Therapeutics BV, priority 2019, dated 2025):

Test system: C57BL/6N mice, bleomycin induced pulmonary fibrosis
Assay: Therapeutic bleomycin induced pulmonary fibrosis 21-day mice model
Type: in vivo
Conditions: mouse, bleomycin 21-day; 10 mg/kg p.o. b.i.d. in PEG200/MC 0.5% 20/80 (v/v); meta-analysis of two pooled identical study runs
Procedure: The aim of the study is to test the efficacy of a test compound at three different doses in a 21-day model of bleomycin induced pulmonary fibrosis in mice.
This study is carried out on C57BL/6N male mice, supplied by Charles River (Calco, Italy), which are acclimatized for at least 5 days in an environment maintained at 22° C., at 55% relative humidity, with 15-20 air changes per hour under light cycles of 12 h. Mice pelleted food and water are provided ad libitum.
The solvent for the test solutions is prepared by adding 0.5 g of hydroxyethylcellulose (Natrosol™) into 500 mL aqua distillate (0.1%) under continuous stirring without heating for 5 h on a magnetic stirrer.
To prepare a solution for intranasal (i.n.) challenge, 0.8 mg/mL stock solutions of bleomycin (Cat #BML-AP302-0010, Enzo Life Sciences, Inc., USA) are thawed and diluted in 330 μL of saline. Prior to i.n. administration, mice are anesthetized i.p.
Finally, test compound solutions are prepared by dissolving the suitable amount of said test compound in PEG 400 or PEG 200 (20% of the final volume) then MC 0.5% (80% of the final volume) to reach final concentrations of 1 mg/mL, 0.3 mg/mL and 0.1 mg/mL, thus yielding compound for a doses of 10 mg/kg, 3 mg/kg and 1 mg/kg. […]
Pulmonary histological changes are assessed using Matsuse modification of Ashcroft score (Ashcroft et al. 1988; Matsuse et al. 1999). […]

## COc1cc(-c2cnn3cc(C(C)(C)C#N)ccc23)cc(OC(F)F)c1C(=O)N[C@@H]1C[C@@H]1F [Cpd 219, 4-[6-(1-cyano-1-methyl-ethyl)pyrazolo[1,5-a]pyridin-3-yl]-2-(difluoromethoxy)-N-[(1R,2S)-2-fluorocyclopropyl]-6-methoxy-benzamide]
  Ashcroft score compared to the vehicle group: statistically significant decrease
